Consider one compound from patent US12485096B2 (CHENLAND NUTRITIONALS, INC., priority 2020, dated 2025).

The structures appear in SMILES notation.

Data set [1] in a line: Dispersion in water (photographs, FIG. 1). The class given is physicochemical.
The test system of data set [2] is Caco-2 cells, HT-29 cells and Raji-B cells. Put plainly: Cell uptake of curcumin in three-cell model, flow cytometry. The settings on record: curcumin 20 μg/mL, 4 hours; verapamil 300 μg/mL, sodium azide 1 mg/mL, ketoconazole 10 μg/mL.

On to `COc1cc(/C=C/C(=O)CC(=O)/C=C/c2ccc(O)c(OC)c2)ccc1O` [Curcumin raw material, Curcumin], for which, in data set [1], the “dispersion in water (in words)” value is given as “insoluble in water”. The “average value (intake of curcumin by cells, fluorescence)” value in data set [2] came to 19.4.
